Article PMC4710522, “A Novel Triazolopyridine-Based Spleen Tyrosine Kinase Inhibitor That Arrests Joint Inflammation” (PLoS ONE, 2016)
“And” between values parts separate entries of the source, which are not always exact repeats. Equal values may be shown once.

Columns and labels:
Experiment in all cases: SelectScreen kinase assay
Type in all cases: biochemical
Itk_h = molecular target: T1, Itk_h (Homo sapiens, UniProt Q08881); details: KM ATP, read-out: % control
T1 construct: purchased Life Technologies (Invitrogen) SelectScreen, Z'-LYTE / Adapta
Summary of the method: (§1)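 With compound constant at 3 µM, kinase activity was determined by Z'-Lyte or Adapta at KM ATP or at 10 or 100 µM ATP. Uninhibited DMSO-only wells defined 100% control.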

Met_M1250T_h = molecular target: T2, Met_M1250T_h (Homo sapiens, UniProt P08581, M1250T); details: KM ATP, read-out: % control
T2 construct: purchased Life Technologies (Invitrogen) SelectScreen, Z'-LYTE / Adapta
Summary of the method: as §1

PKD3_h = molecular target: T3, PKD3_h (Homo sapiens, UniProt O94806); details: KM ATP, read-out: % control
T3 construct: purchased Life Technologies (Invitrogen) SelectScreen, Z'-LYTE / Adapta
Summary of the method: as §1

PKB-gamma_h = molecular target: T4, PKB-gamma_h (Homo sapiens, UniProt Q9Y243); details: KM ATP, read-out: % control
T4 construct: purchased Life Technologies (Invitrogen) SelectScreen, Z'-LYTE / Adapta
T4 sequence (Q9Y243 whole entry): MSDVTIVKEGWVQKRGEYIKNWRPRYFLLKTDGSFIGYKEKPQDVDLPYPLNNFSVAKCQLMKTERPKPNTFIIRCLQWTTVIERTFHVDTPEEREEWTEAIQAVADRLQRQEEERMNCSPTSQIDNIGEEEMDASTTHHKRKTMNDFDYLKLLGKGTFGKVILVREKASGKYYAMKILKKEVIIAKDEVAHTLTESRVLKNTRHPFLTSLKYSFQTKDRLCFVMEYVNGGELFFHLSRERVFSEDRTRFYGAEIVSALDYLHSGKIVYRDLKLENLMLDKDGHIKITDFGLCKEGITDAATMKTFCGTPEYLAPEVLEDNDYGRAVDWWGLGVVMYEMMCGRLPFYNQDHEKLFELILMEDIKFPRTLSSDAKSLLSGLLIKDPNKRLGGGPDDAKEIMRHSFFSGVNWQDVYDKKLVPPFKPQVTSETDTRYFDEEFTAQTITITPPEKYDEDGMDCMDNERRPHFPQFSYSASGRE
Summary of the method: as §1

PKD2_h = molecular target: T5, PKD2_h (Homo sapiens, UniProt Q9BZL6); details: KM ATP, read-out: % control
T5 construct: purchased Life Technologies (Invitrogen) SelectScreen, Z'-LYTE / Adapta
Summary of the method: as §1

MYLK2_h = molecular target: T6, MYLK2_h (Homo sapiens, UniProt Q9H1R3); details: KM ATP, read-out: % control
T6 construct: purchased Life Technologies (Invitrogen) SelectScreen, Z'-LYTE / Adapta
T6 sequence (Q9H1R3 whole entry): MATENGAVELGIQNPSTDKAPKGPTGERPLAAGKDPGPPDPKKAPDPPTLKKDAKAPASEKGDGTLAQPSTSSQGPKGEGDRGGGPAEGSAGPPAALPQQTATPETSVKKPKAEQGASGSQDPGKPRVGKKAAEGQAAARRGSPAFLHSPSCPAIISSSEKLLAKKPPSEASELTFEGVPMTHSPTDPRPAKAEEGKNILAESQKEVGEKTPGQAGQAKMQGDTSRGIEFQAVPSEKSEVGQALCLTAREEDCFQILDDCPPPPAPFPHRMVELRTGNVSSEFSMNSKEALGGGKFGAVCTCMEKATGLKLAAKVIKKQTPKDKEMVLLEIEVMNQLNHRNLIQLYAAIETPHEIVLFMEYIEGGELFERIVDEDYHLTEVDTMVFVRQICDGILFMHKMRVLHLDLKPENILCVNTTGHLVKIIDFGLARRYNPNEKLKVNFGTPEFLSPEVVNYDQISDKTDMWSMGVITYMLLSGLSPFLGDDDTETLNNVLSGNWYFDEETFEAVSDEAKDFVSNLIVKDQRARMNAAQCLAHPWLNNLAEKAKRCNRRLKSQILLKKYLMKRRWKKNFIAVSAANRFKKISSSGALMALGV
Summary of the method: as §1

EphA2_h = molecular target: T7, EphA2_h (Homo sapiens, UniProt P29317); details: KM ATP, read-out: % control
T7 construct: purchased Life Technologies (Invitrogen) SelectScreen, Z'-LYTE / Adapta
Summary of the method: as §1

MST3_h = molecular target: T8, MST3_h (Homo sapiens, UniProt Q9Y6E0); details: KM ATP, read-out: % control
T8 construct: purchased Life Technologies (Invitrogen) SelectScreen, Z'-LYTE / Adapta
Summary of the method: as §1

Met_h = molecular target: T9, Met_h (Homo sapiens, UniProt P08581); details: KM ATP, read-out: % control
T9 construct: purchased Life Technologies (Invitrogen) SelectScreen, Z'-LYTE / Adapta
Summary of the method: as §1

cKit_h = cKit_h (Homo sapiens, UniProt P10721)
cKit_h, sequence (P10721 26-976): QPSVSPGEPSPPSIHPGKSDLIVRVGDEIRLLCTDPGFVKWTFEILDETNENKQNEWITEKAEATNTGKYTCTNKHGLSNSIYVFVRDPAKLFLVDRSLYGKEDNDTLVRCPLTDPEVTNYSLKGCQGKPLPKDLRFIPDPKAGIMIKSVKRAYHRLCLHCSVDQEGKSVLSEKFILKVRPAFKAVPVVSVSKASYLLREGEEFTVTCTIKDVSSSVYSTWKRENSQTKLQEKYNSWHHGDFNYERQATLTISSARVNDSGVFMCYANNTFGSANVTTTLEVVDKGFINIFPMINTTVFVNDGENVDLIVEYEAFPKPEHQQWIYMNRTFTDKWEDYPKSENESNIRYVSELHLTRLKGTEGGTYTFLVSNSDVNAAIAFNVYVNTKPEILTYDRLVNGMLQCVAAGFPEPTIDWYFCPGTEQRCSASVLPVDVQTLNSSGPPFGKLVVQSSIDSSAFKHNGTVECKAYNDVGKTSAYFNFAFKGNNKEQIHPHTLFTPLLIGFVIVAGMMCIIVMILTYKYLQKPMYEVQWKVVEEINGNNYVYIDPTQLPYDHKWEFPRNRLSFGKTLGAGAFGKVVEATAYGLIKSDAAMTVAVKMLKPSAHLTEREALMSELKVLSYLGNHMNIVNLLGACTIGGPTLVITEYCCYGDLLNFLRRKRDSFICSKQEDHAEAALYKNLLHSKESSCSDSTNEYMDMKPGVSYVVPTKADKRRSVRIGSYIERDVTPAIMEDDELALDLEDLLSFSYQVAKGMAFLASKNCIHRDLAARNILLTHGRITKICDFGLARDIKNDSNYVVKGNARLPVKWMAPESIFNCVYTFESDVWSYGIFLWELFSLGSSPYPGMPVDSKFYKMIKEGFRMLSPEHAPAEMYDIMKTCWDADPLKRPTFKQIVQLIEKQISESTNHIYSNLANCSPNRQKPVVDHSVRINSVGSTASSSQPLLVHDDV
Summary of the method: as §1

mTOR_h = molecular target: T10, mTOR_h (Homo sapiens, UniProt P42345); details: KM ATP, read-out: % control
T10 construct: purchased Life Technologies (Invitrogen) SelectScreen, Z'-LYTE / Adapta
Summary of the method: as §1

Flt1_h = molecular target: T11, Flt1_h (Homo sapiens, UniProt P17948); details: KM ATP, read-out: % control
T11 construct: purchased Life Technologies (Invitrogen) SelectScreen, Z'-LYTE / Adapta
Summary of the method: as §1

Abl_h = molecular target: T12, Abl_h (Homo sapiens, UniProt P00519); details: KM ATP, read-out: % control
T12 construct: purchased Life Technologies (Invitrogen) SelectScreen, Z'-LYTE / Adapta
Summary of the method: as §1

PAK3_h = molecular target: T13, PAK3_h (Homo sapiens, UniProt O75914); details: KM ATP, read-out: % control
T13 construct: purchased Life Technologies (Invitrogen) SelectScreen, Z'-LYTE / Adapta
Summary of the method: as §1

IGF-1R_h = molecular target: T14, IGF-1R_h (Homo sapiens, UniProt P08069); details: KM ATP, read-out: % control
T14 construct: purchased Life Technologies (Invitrogen) SelectScreen, Z'-LYTE / Adapta
Summary of the method: as §1

AMPK_A2_B1_G1_h = molecular target: T15, AMPK_A2_B1_G1_h (Homo sapiens, UniProt P54646); details: KM ATP, read-out: % control
T15 construct: purchased Life Technologies (Invitrogen) SelectScreen, Z'-LYTE / Adapta
Summary of the method: as §1

Pim-2_h = molecular target: T16, Pim-2_h (Homo sapiens, UniProt Q9P1W9); details: KM ATP, read-out: % control
T16 construct: purchased Life Technologies (Invitrogen) SelectScreen, Z'-LYTE / Adapta
T16 sequence (Q9P1W9 whole entry): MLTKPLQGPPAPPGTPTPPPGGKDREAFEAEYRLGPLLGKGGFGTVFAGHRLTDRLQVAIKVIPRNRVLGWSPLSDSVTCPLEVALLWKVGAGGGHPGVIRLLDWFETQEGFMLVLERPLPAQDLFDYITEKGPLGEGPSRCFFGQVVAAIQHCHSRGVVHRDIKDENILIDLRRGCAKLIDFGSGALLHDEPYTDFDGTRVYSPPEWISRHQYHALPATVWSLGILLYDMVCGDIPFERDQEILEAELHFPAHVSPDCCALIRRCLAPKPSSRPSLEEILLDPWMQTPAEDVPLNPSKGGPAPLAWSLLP
Summary of the method: as §1

Aurora-B_h = Aurora-B_h (Homo sapiens, UniProt Q96GD4)
Aurora-B_h, sequence (Q96GD4 whole entry): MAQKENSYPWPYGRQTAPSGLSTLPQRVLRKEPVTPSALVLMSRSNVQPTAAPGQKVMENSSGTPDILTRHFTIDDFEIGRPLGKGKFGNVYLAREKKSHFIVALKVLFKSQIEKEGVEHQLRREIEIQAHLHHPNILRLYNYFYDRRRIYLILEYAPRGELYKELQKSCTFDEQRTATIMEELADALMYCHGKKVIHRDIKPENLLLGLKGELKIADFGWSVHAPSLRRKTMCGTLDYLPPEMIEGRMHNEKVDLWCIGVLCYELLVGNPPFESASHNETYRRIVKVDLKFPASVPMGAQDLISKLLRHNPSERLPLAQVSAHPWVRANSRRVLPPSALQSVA
Summary of the method: as §1

CK2_h = molecular target: T17, CK2_h (Homo sapiens, UniProt P68400); details: KM ATP, read-out: % control
T17 construct: purchased Life Technologies (Invitrogen) SelectScreen, Z'-LYTE / Adapta
Summary of the method: as §1

TrkA_h = molecular target: T18, TrkA_h (Homo sapiens, UniProt P04629); details: KM ATP, read-out: % control
T18 construct: purchased Life Technologies (Invitrogen) SelectScreen, Z'-LYTE / Adapta
Summary of the method: as §1

FAK_h = molecular target: T19, FAK_h (Homo sapiens, UniProt Q05397); details: KM ATP, read-out: % control
T19 construct: purchased Life Technologies (Invitrogen) SelectScreen, Z'-LYTE / Adapta
Summary of the method: as §1

IKBKE_h = molecular target: T20, IKBKE_h (Homo sapiens, UniProt Q14164); details: KM ATP, read-out: % control
T20 construct: purchased Life Technologies (Invitrogen) SelectScreen, Z'-LYTE / Adapta
Summary of the method: as §1

SRMS_h = molecular target: T21, SRMS_h (Homo sapiens, UniProt Q9H3Y6); details: KM ATP, read-out: % control
T21 construct: purchased Life Technologies (Invitrogen) SelectScreen, Z'-LYTE / Adapta
Summary of the method: as §1

ErbB4_h = molecular target: T22, ErbB4_h (Homo sapiens, UniProt Q15303); details: KM ATP, read-out: % control
T22 construct: purchased Life Technologies (Invitrogen) SelectScreen, Z'-LYTE / Adapta
Summary of the method: as §1

CK1-delta_h = molecular target: T23, CK1-delta_h (Homo sapiens, UniProt P48730); details: KM ATP, read-out: % control
T23 construct: purchased Life Technologies (Invitrogen) SelectScreen, Z'-LYTE / Adapta
T23 sequence (P48730 whole entry): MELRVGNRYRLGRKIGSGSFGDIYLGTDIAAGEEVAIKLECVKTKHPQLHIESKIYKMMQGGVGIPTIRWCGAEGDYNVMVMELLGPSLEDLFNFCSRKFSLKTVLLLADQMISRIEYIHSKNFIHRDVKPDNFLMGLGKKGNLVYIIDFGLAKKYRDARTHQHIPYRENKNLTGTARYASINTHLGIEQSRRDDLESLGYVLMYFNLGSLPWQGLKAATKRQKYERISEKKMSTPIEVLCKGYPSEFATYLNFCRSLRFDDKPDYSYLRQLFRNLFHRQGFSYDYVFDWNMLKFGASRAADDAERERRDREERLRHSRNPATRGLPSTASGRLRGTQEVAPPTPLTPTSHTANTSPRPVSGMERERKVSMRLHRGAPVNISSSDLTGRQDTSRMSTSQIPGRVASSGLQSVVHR
Summary of the method: as §1

CLK3_h = molecular target: T24, CLK3_h (Homo sapiens, UniProt P49761); details: KM ATP, read-out: % control
T24 construct: purchased Life Technologies (Invitrogen) SelectScreen, Z'-LYTE / Adapta
T24 sequence (P49761 whole entry): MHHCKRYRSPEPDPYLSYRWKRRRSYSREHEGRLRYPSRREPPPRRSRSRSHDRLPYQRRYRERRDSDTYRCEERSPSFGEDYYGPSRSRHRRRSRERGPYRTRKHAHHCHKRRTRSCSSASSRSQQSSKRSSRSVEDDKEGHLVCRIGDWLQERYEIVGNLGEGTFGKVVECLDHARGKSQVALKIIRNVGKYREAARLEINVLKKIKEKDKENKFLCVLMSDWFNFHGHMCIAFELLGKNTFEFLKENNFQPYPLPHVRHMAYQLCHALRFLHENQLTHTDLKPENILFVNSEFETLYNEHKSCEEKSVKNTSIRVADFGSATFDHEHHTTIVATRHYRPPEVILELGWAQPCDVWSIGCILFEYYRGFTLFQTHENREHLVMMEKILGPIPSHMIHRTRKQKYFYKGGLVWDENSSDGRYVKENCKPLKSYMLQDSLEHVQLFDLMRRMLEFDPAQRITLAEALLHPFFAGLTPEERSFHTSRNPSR
Summary of the method: as §1

NEK9_h = molecular target: T25, NEK9_h (Homo sapiens, UniProt Q8TD19); details: KM ATP, read-out: % control
T25 construct: purchased Life Technologies (Invitrogen) SelectScreen, Z'-LYTE / Adapta
Summary of the method: as §1

MST2_h = molecular target: T26, MST2_h (Homo sapiens, UniProt Q13188); details: KM ATP, read-out: % control
T26 construct: purchased Life Technologies (Invitrogen) SelectScreen, Z'-LYTE / Adapta
Summary of the method: as §1

CK1-gamma1_h = molecular target: T27, CK1-gamma1_h (Homo sapiens, UniProt Q9HCP0); details: KM ATP, read-out: % control
T27 construct: purchased Life Technologies (Invitrogen) SelectScreen, Z'-LYTE / Adapta
Summary of the method: as §1

PDGFR-alpha_h = PDGFR-alpha_h (Homo sapiens, UniProt P16234)
PDGFR-alpha_h, sequence (P16234 24-1089): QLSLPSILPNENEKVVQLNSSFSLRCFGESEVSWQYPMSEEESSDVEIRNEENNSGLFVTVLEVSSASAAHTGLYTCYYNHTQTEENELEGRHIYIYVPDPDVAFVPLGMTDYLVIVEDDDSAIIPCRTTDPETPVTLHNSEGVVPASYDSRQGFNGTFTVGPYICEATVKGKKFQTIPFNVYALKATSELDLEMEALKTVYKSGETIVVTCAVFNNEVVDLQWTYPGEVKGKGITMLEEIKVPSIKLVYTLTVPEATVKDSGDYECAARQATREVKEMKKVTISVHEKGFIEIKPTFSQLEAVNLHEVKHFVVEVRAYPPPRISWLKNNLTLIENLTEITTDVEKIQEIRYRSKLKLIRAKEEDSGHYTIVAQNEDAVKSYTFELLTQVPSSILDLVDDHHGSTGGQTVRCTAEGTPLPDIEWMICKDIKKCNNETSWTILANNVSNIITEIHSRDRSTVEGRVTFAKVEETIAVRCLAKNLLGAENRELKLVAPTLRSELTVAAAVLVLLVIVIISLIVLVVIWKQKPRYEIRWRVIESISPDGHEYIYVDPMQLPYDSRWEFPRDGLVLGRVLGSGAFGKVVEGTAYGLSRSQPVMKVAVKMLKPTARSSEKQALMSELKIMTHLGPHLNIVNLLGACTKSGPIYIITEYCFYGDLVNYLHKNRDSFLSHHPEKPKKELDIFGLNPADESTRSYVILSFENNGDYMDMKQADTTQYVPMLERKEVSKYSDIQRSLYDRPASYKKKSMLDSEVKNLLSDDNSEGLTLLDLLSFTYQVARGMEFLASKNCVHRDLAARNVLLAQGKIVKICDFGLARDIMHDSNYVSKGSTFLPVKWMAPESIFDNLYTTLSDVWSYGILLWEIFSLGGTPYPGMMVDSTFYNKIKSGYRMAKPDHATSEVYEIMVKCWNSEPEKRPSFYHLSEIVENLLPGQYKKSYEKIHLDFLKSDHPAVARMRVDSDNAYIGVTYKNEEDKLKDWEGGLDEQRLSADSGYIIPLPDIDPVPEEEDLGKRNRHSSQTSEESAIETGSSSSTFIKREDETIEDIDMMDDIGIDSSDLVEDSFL
Summary of the method: as §1

Flt3_D835Y_h = molecular target: T28, Flt3_D835Y_h (Homo sapiens, UniProt P36888, D835Y); details: KM ATP, read-out: % control
T28 construct: purchased Life Technologies (Invitrogen) SelectScreen, Z'-LYTE / Adapta
Summary of the method: as §1

PKA_h = molecular target: T29, PKA_h (Homo sapiens, UniProt P17612); details: KM ATP, read-out: % control
T29 construct: purchased Life Technologies (Invitrogen) SelectScreen, Z'-LYTE / Adapta
Summary of the method: as §1

PTK2B_h = molecular target: T30, PTK2B_h (Homo sapiens, UniProt Q14289); details: KM ATP, read-out: % control
T30 construct: purchased Life Technologies (Invitrogen) SelectScreen, Z'-LYTE / Adapta
Summary of the method: as §1

CK1-epsilon_h = molecular target: T31, CK1-epsilon_h (Homo sapiens, UniProt P49674); details: KM ATP, read-out: % control
T31 construct: purchased Life Technologies (Invitrogen) SelectScreen, Z'-LYTE / Adapta
Summary of the method: as §1

[1] = 3 µM, KM ATP, read-out: % control
[2] = 10-point dose-response, commercial vendor

Q: Which results are given for `c1cc(CC2CCOCC2)n2nc(Nc3ccc4c(NC5CCOCC5)n[nH]c4c3)nc2c1` [CC-509, [3-(2H-3,4,5,6-tetrahydropyran-4-ylamino)(1H-indazol-6-yl)][5-(2H-3,4,5,6-tetrahydropyran-4-ylmethyl)(2H-1,2,4-triazolo[1,5-a]pyridin-2-yl)]amine]?
A: remaining activity at 3 µM (Itk_h): 91%; remaining activity at 3 µM (Met_M1250T_h): 74%; remaining activity at 3 µM (PKD3_h): 37%; remaining activity at 3 µM (PKB-gamma_h): 99%; remaining activity at 3 µM (PKD2_h): 52%; remaining activity at 3 µM (MYLK2_h): 80%; remaining activity at 3 µM (EphA2_h): 82%; remaining activity at 3 µM (MST3_h): 107%; remaining activity at 3 µM (Met_h): 66%; remaining activity at 3 µM (cKit_h; [1]): 66%; IC50 (cKit_h; [2]): 11 µM; remaining activity at 3 µM (mTOR_h): 92%; remaining activity at 3 µM (Flt1_h): 55%; remaining activity at 3 µM (Abl_h): 19%; remaining activity at 3 µM (PAK3_h): 97%; remaining activity at 3 µM (IGF-1R_h): 97%; remaining activity at 3 µM (AMPK_A2_B1_G1_h): 63%; remaining activity at 3 µM (Pim-2_h): 99%; remaining activity at 3 µM (Aurora-B_h; [1]): 14%; IC50 (Aurora-B_h; [2]): 0.41 µM and 0.409 µM; remaining activity at 3 µM (CK2_h): 94%; remaining activity at 3 µM (TrkA_h): 41%; remaining activity at 3 µM (FAK_h): 43%; remaining activity at 3 µM (IKBKE_h): 67%; remaining activity at 3 µM (SRMS_h): 90%; remaining activity at 3 µM (ErbB4_h): 91%; remaining activity at 3 µM (CK1-delta_h): 88%; remaining activity at 3 µM (CLK3_h): 81%; remaining activity at 3 µM (NEK9_h): 95%; remaining activity at 3 µM (MST2_h): 46%; remaining activity at 3 µM (CK1-gamma1_h): 54%; remaining activity at 3 µM (PDGFR-alpha_h; [1]): 4%; IC50 (PDGFR-alpha_h; [2]): 0.204 µM; remaining activity at 3 µM (Flt3_D835Y_h): -1%; remaining activity at 3 µM (PKA_h): 93%; remaining activity at 3 µM (PTK2B_h): 50%; remaining activity at 3 µM (CK1-epsilon_h): 89%
